Read-outs that look alike come from different tables or passages of the source.

This experiment deals with test plant species. In words: Post-emergent herbicidal activity test (greenhouse, foliar spray, visual growth reduction). Type of experiment: in vivo. Conditions: post-emergence, 336 h, 140 g ai/ha. In outline: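 Greenhouse plants at first–second true leaf stage sprayed overhead at 187 L/ha with compound in acetone/water/isopropanol/DMSO/crop oil/X-77 carrier; controls received solvent blank. Injury rated visually after 14 d on a 0–100% scale versus untreated and control plants, converted to growth reduction.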

[1] abbreviates: ECHCG: barnyardgrass (Echinochloa crus-galli), 14 days after application, read-out: Visual Growth Reduction (%) 14 Days After Application, ECHCG.
Where [2] appears, read: IPOHE: ivy-leaf morning glory (Ipomoea hederacea), 14 days after application, read-out: Visual Growth Reduction (%) 14 Days After Application, IPOHE.
Where [3] appears, read: KCHSC: kochia (Bassia scoparia), 14 days after application, read-out: Visual Growth Reduction (%) 14 Days After Application, KCHSC.
Setting [4] is: ORYSA: rice (Oryza sativa), 14 days after application, read-out: Visual Growth Reduction (%) 14 Days After Application, ORYSA.
The mark [5] stands for this setting: SETFA: giant foxtail (Setaria faberi), 14 days after application, read-out: Visual Growth Reduction (%) 14 Days After Application, SETFA.
[6] abbreviates: SORVU: grain sorghum (Sorghum vulgare), 14 days after application, read-out: Visual Growth Reduction (%) 14 Days After Application, SORVU.
The mark [7] stands for this setting: STEME: common chickweed (Stellaria media), 14 days after application, read-out: Visual Growth Reduction (%) 14 Days After Application, STEME.
Setting [8] is: TRZAS: wheat, spring (Triticum aestivum), 14 days after application, read-out: Visual Growth Reduction (%) 14 Days After Application, TRZAS.
The mark [9] stands for this setting: blackgrass (Alopecurus myosuroides), 14 Days After Application, read-out: Visual Growth Reduction (%) ALOMY.
[10] abbreviates: crabgrass (Digitaria sanguinalis), 14 Days After Application, read-out: Visual Growth Reduction (%) DIGSA.
The mark [11] stands for this setting: lambsquarters (Chenopodium album), 14 Days After Application, read-out: Visual Growth Reduction (%) CHEAL.
Where [12] appears, read: redroot pigweed (Amaranthus retroflexus), 14 Days After Application, read-out: Visual Growth Reduction (%) AMARE.
The mark [13] stands for this setting: wild oat (Avena fatua), 14 Days After Application, read-out: Visual Growth Reduction (%) AVEFA.
[14] abbreviates: yellow nutsedge (Cyperus esculentus), 14 Days After Application, read-out: Visual Growth Reduction (%) CYPES.
The mark [15] stands for this setting: canada thistle (Cirsium arvense), 14 Days After Application, read-out: Visual Growth Reduction (%) CIRAR.

For `COC(=O)c1nc(-c2ccc(Cl)c3ccccc23)c(F)cc1Cl` [F346, Methyl 3-chloro-6-(4-chloronaphthalen-1-yl)-5-fluoropicolinate], the pest or weed control at 140 g/ha is 0 to 29% under setting [1]; 30 to 44% under setting [2]; 0 to 29% under setting [3]; 0 to 29% under setting [4]; 0 to 29% under setting [5]; 0 to 29% under setting [6]. Besides, the pest or weed control at 140 g/ha by setting is: under setting [7], 0 to 29%; under setting [8], 0 to 29%; under setting [9], 0 to 29%; under setting [10], 0 to 29%; under setting [11], 0 to 29%; under setting [12], 0 to 29%. For the same compound, the pest or weed control at 140 g/ha was in the range of 0 to 29% under setting [13] and 0 to 29% under setting [14].
For `COc1nc(C(F)(F)F)ccc1-c1nc(C(=O)O)c(Cl)cc1F` [F347, 5-Chloro-3-fluoro-2′-methoxy-6′-(trifluoromethyl)-[2,3′-bipyridine]-6-carboxylic acid], the pest or weed control at 140 g/ha reads like this: under setting [1], 85 to 94%; under setting [2], 95 to 100%; under setting [3], 85 to 94%; under setting [4], 30 to 44%; under setting [5], 85 to 94%; under setting [6], 85 to 94%. In addition, the pest or weed control at 140 g/ha was in the range of 0 to 29% under setting [7]; 75 to 84% under setting [8]; 60 to 74% under setting [9]; 85 to 94% under setting [15]; 95 to 100% under setting [10]; 95 to 100% under setting [11]. The pest or weed control at 140 g/ha under setting [12] was in the range of 95 to 100%, the pest or weed control at 140 g/ha under setting [13] lay in the range of 60 to 74% and the pest or weed control at 140 g/ha under setting [14] was 0 to 29%.
For the compound `COC(=O)c1nc(-c2ccc(N)cc2F)c(F)cc1Cl` [F348, Methyl 6-(4-amino-2-fluorophenyl)-3-chloro-5-fluoropicolinate], the pest or weed control at 140 g/ha is, setting by setting: under setting [1], 0 to 29%; under setting [2], 0 to 29%; under setting [3], 0 to 29%; under setting [4], 0 to 29%; under setting [5], 0 to 29%; under setting [6], 0 to 29%. In addition, the pest or weed control at 140 g/ha under setting [7] fell in the range of 0 to 29%; the pest or weed control at 140 g/ha under setting [8] was in the range of 0 to 29%; the pest or weed control at 140 g/ha under setting [9] lay in the range of 0 to 29%; the pest or weed control at 140 g/ha under setting [10] was 0 to 29%; the pest or weed control at 140 g/ha under setting [11] was 0 to 29%; the pest or weed control at 140 g/ha under setting [12] was 0 to 29%. For the same compound, the pest or weed control at 140 g/ha is, setting by setting: under setting [13], 0 to 29%; under setting [14], 0 to 29%.
`O=C(O)c1nc(-c2cc(Br)c(C(F)(F)F)cc2Cl)ccc1Cl` [F349, 6-(5-Bromo-2-chloro-4-(trifluoromethyl)phenyl)-3-chloropicolinic acid]: the pest or weed control at 140 g/ha by setting is: under setting [1], 0 to 29%; under setting [2], 95 to 100%; under setting [3], 85 to 94%; under setting [4], 0 to 29%; under setting [5], 75 to 84%; under setting [6], 85 to 94%. In addition, the pest or weed control at 140 g/ha reads like this: under setting [7], 0 to 29%; under setting [8], 85 to 94%; under setting [9], 60 to 74%; under setting [10], 75 to 84%; under setting [11], 95 to 100%; under setting [12], 60 to 74%. Moreover, the pest or weed control at 140 g/ha under setting [13] is 60 to 74% and the pest or weed control at 140 g/ha under setting [14] was in the range of 0 to 29%.
Regarding `C=Cc1cc(-c2nc(C(=O)O)c(Cl)cc2F)c(Cl)cc1C(F)(F)F` [F350, 3-Chloro-6-(2-chloro-4-(trifluoromethyl)-5-vinylphenyl)-5-fluoropicolinic acid], the pest or weed control at 140 g/ha reads like this: under setting [1], 0 to 29%; under setting [2], 85 to 94%; under setting [3], 85 to 94%; under setting [4], 0 to 29%; under setting [5], 0 to 29%; under setting [6], 0 to 29%. The pest or weed control at 140 g/ha by setting is: under setting [7], 0 to 29%; under setting [8], 0 to 29%; under setting [9], 0 to 29%; under setting [10], 30 to 44%; under setting [11], 60 to 74%; under setting [12], 30 to 44%. Also, the pest or weed control at 140 g/ha reads like this: under setting [13], 0 to 29%; under setting [14], 0 to 29%.
For `COC(=O)c1nc(-c2ccc(C#N)cc2OC)c(F)cc1Cl` [F351, Methyl 3-chloro-6-(4-cyano-2-methoxyphenyl)-5-fluoropicolinate], the pest or weed control at 140 g/ha is 30 to 44% under setting [1]; 95 to 100% under setting [2]; 30 to 44% under setting [3]; 0 to 29% under setting [4]; 75 to 84% under setting [5]; 75 to 84% under setting [6]. The pest or weed control at 140 g/ha reads like this: under setting [7], 0 to 29%; under setting [8], 0 to 29%; under setting [9], 0 to 29%; under setting [15], 0 to 29%; under setting [10], 30 to 44%; under setting [11], 75 to 84%. Also, the pest or weed control at 140 g/ha reads like this: under setting [12], 60 to 74%; under setting [13], 0 to 29%; under setting [14], 0 to 29%.
Take `O=C(O)c1nc(-c2ccc(C(F)(F)F)cc2Cl)c(F)cc1Cl` [F352, 3-chloro-6-(2-chloro-4-(trifluoromethyl)phenyl)-5-fluoropicolinic acid]: the pest or weed control at 140 g/ha runs as follows: under setting [1], 95 to 100%; under setting [2], 95 to 100%; under setting [3], 85 to 94%; under setting [4], 85 to 94%; under setting [5], 95 to 100%; under setting [6], 95 to 100%. Moreover, the pest or weed control at 140 g/ha fell in the range of 60 to 74% under setting [7]; 95 to 100% under setting [8]; 75 to 84% under setting [9]; 95 to 100% under setting [15]; 95 to 100% under setting [10]; 95 to 100% under setting [11]. Besides, the pest or weed control at 140 g/ha under setting [12] is 95 to 100%, the pest or weed control at 140 g/ha under setting [13] is 85 to 94% and the pest or weed control at 140 g/ha under setting [14] was 0 to 29%.
In the case of `COC(=O)c1nc(-c2cc3c(cc2OC)OC(F)(F)O3)ccc1Cl` [F353, Methyl 3-chloro-6-(2,2-difluoro-6-methoxybenzo[d][1,3]dioxol-5-yl)picolinate], the pest or weed control at 140 g/ha runs as follows: under setting [1], 0 to 29%; under setting [2], 95 to 100%; under setting [3], 0 to 29%; under setting [4], 0 to 29%; under setting [5], 0 to 29%; under setting [6], 45 to 59%. The pest or weed control at 140 g/ha was 0 to 29% under setting [7]; 0 to 29% under setting [8]; 0 to 29% under setting [9]; 0 to 29% under setting [15]; 0 to 29% under setting [10]; 45 to 59% under setting [11]. Further, the pest or weed control at 140 g/ha lay within 0 to 29% under setting [12], 0 to 29% under setting [13] and 0 to 29% under setting [14].

(Values after patent US20230017045A1, “PYRIDINE AND PYRIMIDINE CARBOXYLATE HERBICIDES AND METHODS OF USE THEREOF” (Dow AgroSciences LLC, priority 2017, published 2023).)
